In patent US9179694B2, “Method and composition for enhancing milk production and milk component concentrations” (PURINA ANIMAL NUTRITION LLC, priority 2003, dated 2015):

Test: Milk production (as is basis) in sorbitol feeding trials
Type: in vivo, Holstein cows
Experimental: Each cow of each of the six different trials (Control Trial #1, Control Trial #2, Pre-Partum Trial #1, Pre-Partum Trial #2, Pre/Post Trial #1, and Pre/Post Trial #2) was milked three times daily and the weight of produced milk by each cow was recorded at each milking. The milk from each cow was sampled once per week (⅓ of the sample volume from each of the three milkings occurring on the weekly milk sampling day) and was analyzed for true protein, total fat, lactose, and total solids, as detailed in the property determination and characterization techniques presented above. Additionally, samples of blood were periodically obtained from each cow during the four trials (Control Trial 2, Pre-Partum Trial #2, Pre/Post Trial #1, and Pre/Post Trial #2) encompassed in Example Two and were analyzed for non-esterified fatty acid (NEFA) content as detailed in the property determination and characterization techniques presented above. No NEFA analysis was conducted on the cows employed in Control Trial #1 or Pre-Partum Trial #1 that are the subject of Example One. Example One includes Control Trial #1 and Pre-Partum Trial #1. Both primiparious cows and multiparious cows were included in Control Trial #1 and Pre-Partum Trial #1. Five primiparious cows and fifteen multiparious cows were included in Control Trial #1; likewise, five primiparious cows and fifteen multiparious cows were included in Pre-Partum Trial #1. All cows included in Control Trial #1 and Pre-Partum Trial #1 were Holsteins. Example Two includes Control Trial #2, Pre-Partum Trial #2, Pre/Post Trial #1, and Pre/Post Trial #2. Only multiparious, Holstein cows were included in Control Trial #2, Pre-Partum Trial #1, Pre/Post Trial #1, and Pre/Post Trial #2. Eighteen multiparious cows were included in both Control Trial #2 and Pre-Partum Trial #2, while sixteen multiparious cows were included in Pre/Post Trial #1 and seventeen multiparious cows were included in Pre/Post Trial #2.

OC[C@@H](O)[C@@H](O)[C@H](O)[C@@H](O)CO [sorbitol]
Milk Production (As Is Basis) (Pre-Partum Trial #1 (75/0/0 g/day in wk −3..−1/+1..+4/+5..+8), multiparious cows, weeks +1 through +8): 99.9 lbs/day
Milk Production (As Is Basis) (Pre-Partum Trial #1 (75/0/0 g/day in wk −3..−1/+1..+4/+5..+8), primiparious cows, weeks +1 through +8): 71.7 lbs/day
increase in milk production (Pre-Partum Trial #1 (75 g/day wk −3..−1 only) versus Control Trial #1, multiparious cows, weeks +1 through +8): 9.2%
Milk Production (As Is Basis) (Pre-Partum Trial #2 (75/0/100 g/day in wk −3..−1/+1..+4/+5..+8), multiparious cows, week +1): 62.8 lbs/day
Milk Production (As Is Basis) (Pre-Partum Trial #2 (75/0/100 g/day in wk −3..−1/+1..+4/+5..+8), multiparious cows, week +2): 92.6 lbs/day
Milk Production (As Is Basis) (Pre-Partum Trial #2 (75/0/100 g/day in wk −3..−1/+1..+4/+5..+8), multiparious cows, week +3): 102 lbs/day
Milk Production (As Is Basis) (Pre-Partum Trial #2 (75/0/100 g/day in wk −3..−1/+1..+4/+5..+8), multiparious cows, week +4): 111 lbs/day
Milk Production (As Is Basis) (Pre-Partum Trial #2 (75/0/100 g/day in wk −3..−1/+1..+4/+5..+8), multiparious cows, week +5): 115 lbs/day
Milk Production (As Is Basis) (Pre-Partum Trial #2 (75/0/100 g/day in wk −3..−1/+1..+4/+5..+8), multiparious cows, week +6): 115 lbs/day
Milk Production (As Is Basis) (Pre-Partum Trial #2 (75/0/100 g/day in wk −3..−1/+1..+4/+5..+8), multiparious cows, week +7): 115 lbs/day
Milk Production (As Is Basis) (Pre-Partum Trial #2 (75/0/100 g/day in wk −3..−1/+1..+4/+5..+8), multiparious cows, week +8): 111 lbs/day
Milk Production (As Is Basis) (Pre-Partum Trial #2 (75/0/100 g/day in wk −3..−1/+1..+4/+5..+8), multiparious cows, weeks +1 through +4): 92.0 lbs/day
Milk Production (As Is Basis) (Pre-Partum Trial #2 (75/0/100 g/day in wk −3..−1/+1..+4/+5..+8), multiparious cows, weeks +1 through +8): 103 lbs/day
Milk Production (As Is Basis) (Pre-Partum Trial #2 (75/0/100 g/day in wk −3..−1/+1..+4/+5..+8), multiparious cows, weeks +5 through +8): 115 lbs/day
Milk Production (As Is Basis) (Pre/Post Trial #1 (150/125/100 g/day in wk −3..−1/+1..+4/+5..+8), multiparious cows, week +1): 67.9 lbs/day
Milk Production (As Is Basis) (Pre/Post Trial #1 (150/125/100 g/day in wk −3..−1/+1..+4/+5..+8), multiparious cows, week +1, two-trial comparison with Control Trial #2 (Table 23)): 68.4 lbs/day
Milk Production (As Is Basis) (Pre/Post Trial #1 (150/125/100 g/day in wk −3..−1/+1..+4/+5..+8), multiparious cows, week +2): 93.8 lbs/day
Milk Production (As Is Basis) (Pre/Post Trial #1 (150/125/100 g/day in wk −3..−1/+1..+4/+5..+8), multiparious cows, week +2, two-trial comparison with Control Trial #2 (Table 23)): 93.9 lbs/day
Milk Production (As Is Basis) (Pre/Post Trial #1 (150/125/100 g/day in wk −3..−1/+1..+4/+5..+8), multiparious cows, week +3): 104 lbs/day
Milk Production (As Is Basis) (Pre/Post Trial #1 (150/125/100 g/day in wk −3..−1/+1..+4/+5..+8), multiparious cows, week +3, two-trial comparison with Control Trial #2 (Table 23)): 104 lbs/day
Milk Production (As Is Basis) (Pre/Post Trial #1 (150/125/100 g/day in wk −3..−1/+1..+4/+5..+8), multiparious cows, week +4): 109 lbs/day
Milk Production (As Is Basis) (Pre/Post Trial #1 (150/125/100 g/day in wk −3..−1/+1..+4/+5..+8), multiparious cows, week +4, two-trial comparison with Control Trial #2 (Table 23)): 109 lbs/day
Milk Production (As Is Basis) (Pre/Post Trial #1 (150/125/100 g/day in wk −3..−1/+1..+4/+5..+8), multiparious cows, week +5): 113 lbs/day
Milk Production (As Is Basis) (Pre/Post Trial #1 (150/125/100 g/day in wk −3..−1/+1..+4/+5..+8), multiparious cows, week +5, two-trial comparison with Control Trial #2 (Table 23)): 113 lbs/day
Milk Production (As Is Basis) (Pre/Post Trial #1 (150/125/100 g/day in wk −3..−1/+1..+4/+5..+8), multiparious cows, week +6): 113 lbs/day
Milk Production (As Is Basis) (Pre/Post Trial #1 (150/125/100 g/day in wk −3..−1/+1..+4/+5..+8), multiparious cows, week +6, two-trial comparison with Control Trial #2 (Table 23)): 113 lbs/day
Milk Production (As Is Basis) (Pre/Post Trial #1 (150/125/100 g/day in wk −3..−1/+1..+4/+5..+8), multiparious cows, week +7): 112 lbs/day
Milk Production (As Is Basis) (Pre/Post Trial #1 (150/125/100 g/day in wk −3..−1/+1..+4/+5..+8), multiparious cows, week +7, two-trial comparison with Control Trial #2 (Table 23)): 112 lbs/day
Milk Production (As Is Basis) (Pre/Post Trial #1 (150/125/100 g/day in wk −3..−1/+1..+4/+5..+8), multiparious cows, week +8): 114 lbs/day
Milk Production (As Is Basis) (Pre/Post Trial #1 (150/125/100 g/day in wk −3..−1/+1..+4/+5..+8), multiparious cows, week +8, two-trial comparison with Control Trial #2 (Table 23)): 115 lbs/day
Milk Production (As Is Basis) (Pre/Post Trial #1 (150/125/100 g/day in wk −3..−1/+1..+4/+5..+8), multiparious cows, weeks +1 through +4): 93.6 lbs/day
Milk Production (As Is Basis) (Pre/Post Trial #1 (150/125/100 g/day in wk −3..−1/+1..+4/+5..+8), multiparious cows, weeks +1 through +4, two-trial comparison with Control Trial #2 (Table 23)): 94.1 lbs/day
Milk Production (As Is Basis) (Pre/Post Trial #1 (150/125/100 g/day in wk −3..−1/+1..+4/+5..+8), multiparious cows, weeks +1 through +8): 103 lbs/day
Milk Production (As Is Basis) (Pre/Post Trial #1 (150/125/100 g/day in wk −3..−1/+1..+4/+5..+8), multiparious cows, weeks +1 through +8, two-trial comparison with Control Trial #2 (Table 23)): 104 lbs/day
Milk Production (As Is Basis) (Pre/Post Trial #1 (150/125/100 g/day in wk −3..−1/+1..+4/+5..+8), multiparious cows, weeks +5 through +8): 113 lbs/day
Milk Production (As Is Basis) (Pre/Post Trial #1 (150/125/100 g/day in wk −3..−1/+1..+4/+5..+8), multiparious cows, weeks +5 through +8, two-trial comparison with Control Trial #2 (Table 23)): 113 lbs/day
Milk Production (As Is Basis) (Pre/Post Trial #2 (75/75/100 g/day in wk −3..−1/+1..+4/+5..+8), multiparious cows, week +1): 66.4 lbs/day
Milk Production (As Is Basis) (Pre/Post Trial #2 (75/75/100 g/day in wk −3..−1/+1..+4/+5..+8), multiparious cows, week +2): 92.8 lbs/day
Milk Production (As Is Basis) (Pre/Post Trial #2 (75/75/100 g/day in wk −3..−1/+1..+4/+5..+8), multiparious cows, week +3): 102 lbs/day
Milk Production (As Is Basis) (Pre/Post Trial #2 (75/75/100 g/day in wk −3..−1/+1..+4/+5..+8), multiparious cows, week +4): 108 lbs/day
Milk Production (As Is Basis) (Pre/Post Trial #2 (75/75/100 g/day in wk −3..−1/+1..+4/+5..+8), multiparious cows, week +5): 113 lbs/day
Milk Production (As Is Basis) (Pre/Post Trial #2 (75/75/100 g/day in wk −3..−1/+1..+4/+5..+8), multiparious cows, week +6): 113 lbs/day
Milk Production (As Is Basis) (Pre/Post Trial #2 (75/75/100 g/day in wk −3..−1/+1..+4/+5..+8), multiparious cows, week +7): 110 lbs/day
Milk Production (As Is Basis) (Pre/Post Trial #2 (75/75/100 g/day in wk −3..−1/+1..+4/+5..+8), multiparious cows, week +8): 108 lbs/day
Milk Production (As Is Basis) (Pre/Post Trial #2 (75/75/100 g/day in wk −3..−1/+1..+4/+5..+8), multiparious cows, weeks +1 through +4): 91.7 lbs/day
Milk Production (As Is Basis) (Pre/Post Trial #2 (75/75/100 g/day in wk −3..−1/+1..+4/+5..+8), multiparious cows, weeks +1 through +8): 102 lbs/day
Milk Production (As Is Basis) (Pre/Post Trial #2 (75/75/100 g/day in wk −3..−1/+1..+4/+5..+8), multiparious cows, weeks +5 through +8): 111 lbs/day
